How the values were obtained:
Type in all cases: cell-based, Escherichia coli
[1] = system: E. coli cells superexpressing MazF; assay: Resazurin assay (redox state), coexpression with MazF; details: cells coexpressing MazF and recombinant SamF, 1 h MazF expression, 75 μg/mL resazurin
Experimental: This experiment was conducted as described above (“bacterial cell growth assay”). However, 1 h after mazF induction with 1% of L-arabinose, approximately 40 millions of cells in 200 μL of LB (with antibiotics, IPTG and L-arabinose) were taken and incubated with 75 μg/mL of resazurin (final concentration). The experiment was performed in a 96-well plate in triplicate. The plate was incubated at 37 °C/70 rpm, and the color development, due to resazurin reduction, was monitored every hour visually and by scanning the dye absorbance between 500–700 nm.

[2] = system: E. coli cells superexpressing MazF; assay: Oxygen consumption assay, coexpression with MazF; details: cells coexpressing MazF and recombinant SamF; 1 mM IPTG, 1% L-arabinose, 37 °C
Experimental: This experiment was conducted as described above (“bacterial growth assay”). However, 90 min after induction of recombinant samF with 1 mM IPTG, an aliquot of 1 mL of a cell suspension containing approximately 2.5 million cells was removed from each culture and placed into the chamber of an Oroboros O2K oxygraph (Bioplast) instrument. After equilibration of the oxygen consumption rate, mazF expression was induced by the addition of 1% of L-arabinose, and the consumption rate and amount of dissolved oxygen was monitored for a period of about 3 h. The experiment was carried out at 37 °C under orbital shaking at 200 rpm and repeated at least three times.

[3] = system: E. coli cells superexpressing MazF; assay: Glucose uptake assay (2-NBDG, flow cytometry), coexpression with MazF; details: cells coexpressing MazF and recombinant SamF, 400 μM 2-NBDG
Experimental: This experiment was carried out as described above (“bacterial cell growth assay”). However, 1 h after mazF induction with 1% of L-arabinose, cells were harvested by centrifugation (10 min/4,500 rpm/4 °C). The cell pellet was resuspended in 5 mL of M9 media without glucose or any other carbon source (M9^–glucose). Cells were pelleted again and resuspended in M9^–glucose as above. Ten million cells were removed from this solution in a final volume of 5 mL of M9^–glucose and incubated with 400 μM of the fluorescent glucose analog 2-NDBG (Thermofisher) at 37 °C/300 rpm. Aliquots of 0.5 mL were taken at 1 h intervals for a period of 3 h. To remove the noninternalized 2-NBG dye, cells were centrifuged (10 min/4,500 rpm/4 °C) and the supernatant was removed. After a new wash step with 1 mL of M9^–glucose, the cell pellet was resuspended in 0.5 mL of M9^–glucose. Cells were placed on ice until all samples were collected and then immediately subjected to flow cytometry on a BD FACS Canto II system (BD Biosciences) with an excitation/emission wavelength at 488/530 nm. The percentage of cells labeled with 2-NGDG was calculated relative to the fluorescence of the stainless control with FlowJo software.

[4] = system: E. coli cells expressing MazF; assay: Antibiotic survival assay (ciprofloxacin), coexpression with MazF; details: 4 μg/mL ciprofloxacin, up to 4 h; toxin induced 1 h before antibiotic
Experimental: This experiment was conducted as described above (“bacterial growth assay”) until the induction of the toxin. However, 1 h after mazF induction with 0.5% of L-arabinose, approximately two million cells were removed from each culture and diluted with LB (final volume of 10 mL) supplemented with IPTG, L-arabinose, and antibiotics for plasmid maintenance. Here, an aliquot of 1 mL was withdrawn, which represents time zero (before the implementation of antibiotic stress). Cells were then exposed to 4 μg/mL ciprofloxacin and incubated at 37 °C/215 rpm for 4 h. Aliquots of 1 mL were taken at intervals of 1 h and washed three times with LB medium (5,000 rpm/5 min/4 °C) to remove the antibiotic. After the last wash step, the culture medium was removed, and the cell pellet was resuspended in 100 μL of LB medium. 10-fold serial dilutions were made from this solution using LB medium, and 2 μL of each dilution was spotted on solid LB-agar supplemented with antibiotics for the maintenance of plasmids. Plates were incubated at 37 °C for 24 h and photographed. The experiment was repeated at least three times.

“MSHLFWAQFDEYF [recombinant SamF, recombinantly expressed SamF ([…]) from pET-24a-samF in E. coli]” was tested, and the “Time to complete reduction of resazurin” value [1] was 3 to 4 h, the “Oxygen consumption rate after mazF induction” value [2] was 20 pmol/s and the “Percentage of cells labeled with 2-NBDG” value ([3]; first hour) was 64%. The “Percentage of cells labeled with 2-NBDG” value ([3]; second hour) was 87%, the “Percentage of cells labeled with 2-NBDG” value ([3]; third hour) was 96% and the “Survival of cells coexpressing MazF and the peptide under ciprofloxacin (result in words)” value [4] was “almost eradicated after only 1 h”.

Reference: PMC12557383, “Development of a Potent and Functional In Vivo Peptide Competitive Inhibitor for the Toxin MazF” (Journal of Medicinal Chemistry, 2025)
